This is an account of results in ChEMBL document CHEMBL4431301, “The Medicinal Chemistry of Dengue Virus” (J Med Chem, 2016).

The structures appear in SMILES notation. Where a SMILES comes first, the peptide text is derived from it.

Series [1] concerns the target T1, Genome polyprotein (dengue virus type 2, UniProt P29990). Briefly: Inhibition of recombinant Dengue virus 2 S-16803 NS2B-NS3 protease using Bz-nKRRAMC as substrate preincubated with enzyme followed by substrate addition measured after 20 mins by fluorescence assay.
Series [2] can be described thus: Cytotoxicity against human HuH7 cells assessed as cell viability after 48 hrs by Celltiter-Glo luminescent assay. In kind it is cell-based, Huh-7. (Cellular ATP, detected with luciferase, serves as a proxy for viable cell number.)
The nature of series [3]: Cytotoxicity against BHK21 cells assessed as cell viability after 48 hrs by Celltiter-Glo luminescent assay. It is filed as cell-based, Mesocricetus auratus, BHK-21. Conditions: hamster.
Series [4] concerns dengue virus type 2. Briefly: Antiviral activity against Dengue virus 2 infected in human HuH7 cells after 48 hrs by CFI assay. In kind it is functional, organism-based. Conditions: Huh-7, 48 h.
In series [5] the target is Genome polyprotein (dengue virus type 2) (UniProt P29990). The experiment in a line: Inhibition of the Dengue virus 2 NS2B-NS3 protease using Bz-nKRR-AMC as substrate at 300 uM preincubated for 15 mins followed by substrate addition measured after 30 mins by fluorescence assay.
For series [6], the target named is DEN4V NS2B-G4SG4NS3 serine protease (Dengue virus type 4, UniProt P09866). Briefly: Inhibition of Dengue virus 4 NS2B-NS3 protease expressed in Escherichia coli using Abz-RRRRSAG-nY-NH2 as substrate preincubated for 20 mins followed by addition of substrate measured after 60 mins by fluorescence assay.
The target of series [7] is T1, Genome polyprotein. The experiment in a line: Inhibition of Dengue virus 1 NS2B-NS3 protease expressed in Escherichia coli using Abz-RRRRSAG-nY-NH2 as substrate preincubated for 20 mins followed by addition of substrate measured after 60 mins by fluorescence assay. Further details: species or system dengue virus type 1.
The target in series [8] is T1, Genome polyprotein. The experiment in a line: Inhibition of Dengue virus 3 NS2B-NS3 protease expressed in Escherichia coli using Abz-RRRRSAG-nY-NH2 as substrate preincubated for 20 mins followed by addition of substrate measured after 60 mins by fluorescence assay. Set-up: species or system dengue virus type 3.
For series [9], the target named is T1, Genome polyprotein. Briefly: Inhibition of Dengue virus 2 NS2B-NS3 protease expressed in Escherichia coli using Abz-RRRRSAG-nY-NH2 as substrate preincubated for 20 mins followed by addition of substrate measured after 60 mins by fluorescence assay.
Series [10] concerns dengue virus type 2. Briefly: Antiviral activity against Dengue virus 2 NGC infected in monkey LLC-MK2 cells preincubated with virus for 1 hr followed by cell infection for 1 hr by focus forming unit assay. In kind it is functional, organism-based.
The subject of series [11] is dengue virus type 2. The experiment in a line: Antiviral activity against Dengue virus 2 16681 infected in african green monkey Vero cells assessed as blockage of viral entry after 72 hrs by foci-forming assay. It is filed as functional, organism-based. Conditions: Dengue virus, 16681, Vero.
Series [12] relates to dengue virus type 4. Briefly: Antiviral activity against Dengue virus 4 H241 infected in african green monkey Vero cells assessed as blockage of viral entry after 72 hrs by foci-forming assay. It is filed as functional, organism-based.
Series [13] concerns dengue virus type 3. Briefly: Antiviral activity against Dengue virus 3 H87 infected in african green monkey Vero cells assessed as blockage of viral entry after 72 hrs by foci-forming assay. It is filed as functional, organism-based.
For series [14], the system named is dengue virus type 1. The experiment in a line: Antiviral activity against Dengue virus 1 Hawaii infected in african green monkey Vero cells assessed as blockage of viral entry after 72 hrs by foci-forming assay. It is filed as functional, organism-based.
For series [15], the system named is dengue virus type 2. Briefly: Antiviral activity against Dengue virus 2 NGC infected in BHK21 cells assessed as reduction in viral titer after 3 days by RT-PCR method. It is filed as functional, organism-based. Conditions: BHK-21, 72 h.
The nature of series [16]: Inhibition of envelope protein mediated membrane fusion in Dengue virus TSV01 infected in mosquito C6/36 cells assessed as trypsin degradation after 1 hr by SDS-PAGE method. It is filed as cell-based. Particulars: TSV01, C6/36, 1 h.
Series [17] is described as follows: Cytotoxicity against BHK21 cells assessed as cell viability after 3 days by CellTiter Glo assay. In kind it is cell-based, Mesocricetus auratus, BHK-21. Conditions: hamster.
The nature of series [18]: Inhibition of envelope protein mediated membrane fusion in Dengue virus TSV01 infected in mosquito C6/36 cells after 1 hr by propidium iodide staining based fluorescence assay. It is filed as cell-based. Conditions: TSV01, C6/36, 1 h.
The test system of series [19] is dengue virus type 4. The experiment in a line: Antiviral activity against Dengue virus 4 infected in monkey LLC-MK2 cells assessed as reduction in viral infection at 2 to 5 uM by focus forming unit assay. It is filed as functional. Set-up: scale not given: the % may be the effect or the level left.
Series [20] concerns dengue virus type 3. Briefly: Antiviral activity against Dengue virus 3 infected in monkey LLC-MK2 cells assessed as reduction in viral infection at 2 to 5 uM by focus forming unit assay. In kind it is functional. Set-up: scale not given: the % may be the effect or the level left.
Series [21] has as its system dengue virus type 2. The experiment in a line: Antiviral activity against Dengue virus 2 infected in monkey LLC-MK2 cells assessed as reduction in viral infection at 2 to 5 uM by focus forming unit assay. In kind it is functional. Further details: scale not given: the % may be the effect or the level left.
For series [22], the system named is dengue virus type 1. Briefly: Antiviral activity against Dengue virus 1 infected in monkey LLC-MK2 cells assessed as reduction in viral infection at 2 to 5 uM by focus forming unit assay. It is filed as functional. Set-up: scale not given: the % may be the effect or the level left.

On to `N#C/C(=C\c1ccc(-c2ccc(C(=O)O)cc2)s1)c1nc2cc(Cl)ccc2[nH]1`, for which, at Genome polyprotein [1], the IC50 (commonly the midpoint of a concentration-inhibition curve) turned out to be 5.95 µM.
As to `Cc1cc(N2CCN(C)CC2)ccc1NC(=O)c1c2c(nc3ccccc13)CCN(Cc1ccccc1)C2`, the CC50 (as a rule, the concentration that lowers cell viability or growth by half) at 48 h in series [2] is 55 µM; in series [3] it was above 300 µM. In addition, the EC50 (commonly the midpoint of the concentration-response curve) in the series with dengue virus type 2 [4] is 5 µM. Moreover, the inhibition – broadly, the relative decrease from the control value, in per cent – in [5] came to 85%.
As for `NC(=O)[C@H](Cc1c[nH]c2ccccc12)NC(=O)[C@H](CS)NC(=O)[C@H](Cc1ccc(O)cc1)NC(=O)[C@@H](N)Cc1c[nH]c2ccccc12` (H-WYCW-NH2), the Ki – broadly, the dissociation constant of the complex between target and ligand, obtained from inhibition or displacement – in series [6] is 11.2 µM; on Genome polyprotein [7], 4.2 µM; on Genome polyprotein [8], 24.4 µM; on Genome polyprotein [9] it was 4.8 µM.
`CC[C@H](C)[C@H](NC(=O)[C@H](CC(C)C)NC(=O)[C@@H](NC(=O)[C@H](Cc1ccccc1)NC(=O)[C@H](Cc1c[nH]c2ccccc12)NC(=O)[C@@H](N)Cc1ccccc1)[C@@H](C)O)C(=O)N[C@@H](CCCCN)C(=O)N[C@H](C(=O)N[C@@H](CCC(N)=O)C(=O)N[C@@H](C)C(=O)N[C@@H](CCCCN)C(=O)N[C@@H](CCC(N)=O)C(=O)N1CCC[C@H]1C(=O)N[C@@H](C)C(=O)N[C@@H](CCCNC(=N)N)C(=O)N[C@@H](Cc1ccc(O)cc1)C(=O)N[C@@H](CCCNC(=N)N)C(=O)N[C@@H](CCCNC(=N)N)C(=O)N[C@@H](Cc1ccccc1)C(=O)N[C@@H](CS)C(=O)O)[C@@H](C)O` (H-FWFTLIKTQAKQPARYRRFC-OH) returned an IC50 with dengue virus type 2 [10] of 7 µM.
On to `CC[C@H](C)[C@H](NC(=O)[C@H](Cc1c[nH]c2ccccc12)NC(=O)[C@@H](NC(=O)[C@H](CCC(=O)O)NC(=O)[C@@H](NC(=O)[C@H](CCCNC(=N)N)NC(=O)[C@H](CCC(N)=O)NC(=O)[C@@H](NC(=O)[C@H](Cc1cnc[nH]1)NC(=O)[C@H](CCCCN)NC(=O)[C@H](Cc1c[nH]c2ccccc12)NC(=O)[C@H](C)NC(=O)CNC(=O)[C@H](CCC(=O)O)NC(=O)[C@H](CO)NC(=O)[C@H](CO)NC(=O)[C@H](CCSC)NC(=O)[C@H](Cc1c[nH]c2ccccc12)NC(=O)[C@@H](NC(=O)[C@H](CCC(=O)O)NC(=O)[C@@H](NC(=O)[C@H](CCCNC(=N)N)NC(=O)[C@@H](NC(=O)[C@H](CCC(=O)O)NC(=O)[C@H](CC(C)C)NC(=O)CNC(=O)[C@H](CCSC)NC(=O)CNC(=O)[C@@H](NC(=O)[C@H](Cc1cnc[nH]1)NC(=O)[C@@H]1CCCN1C(=O)[C@@H](NC(=O)[C@H](CC(C)C)NC(=O)[C@H](C)NC(=O)[C@@H](NC(=O)[C@@H](N)CO)C(C)C)C(C)C)C(C)C)[C@@H](C)O)[C@@H](C)O)[C@@H](C)O)C(C)C)[C@@H](C)CC)[C@H](C)O)C(=O)N[C@@H](CC(C)C)C(=O)N[C@@H](CCCNC(=N)N)C(=O)N[C@@H](Cc1cnc[nH]1)C(=O)N1CCC[C@H]1C(=O)NCC(=O)O`, for which the EC50 in the series with dengue virus type 2 [11], with dengue virus type 4 [12], with dengue virus type 3 [13] and in the series with dengue virus type 1 [14] was 24 to 31 µM throughout.
As for `O=C(O)c1cc(=O)c2ccc(S[C@@H](/C=C/C=C\CCOc3ccc(Cl)c(Cl)c3)[C@H](O)c3cccc(C(F)(F)F)c3)cc2o1`, the EC50 in the series on dengue virus type 2 [15] was 9.8 µM. For the same compound, the IC50 in [16] and in series [18] was 6.8 µM in each case. In addition, the CC50 at 72 h in [17] was 48.7 µM.
Take `CC[C@H](C)[C@H](NC(=O)[C@H](C)NC(=O)CNC(=O)[C@H](Cc1ccccc1)NC(=O)[C@@H](NC(=O)[C@H](CCC(N)=O)NC(=O)[C@H](Cc1cnc[nH]1)NC(=O)[C@H](CC(C)C)NC(=O)[C@H](C)NC(=O)[C@H](CCCCN)NC(=O)CNC(=O)[C@@H](NC(=O)[C@H](CO)NC(=O)[C@@H](NC(=O)[C@H](Cc1ccccc1)NC(=O)[C@@H](NC(=O)CNC(=O)CNC(=O)[C@H](CC(C)C)NC(=O)[C@H](CO)NC(=O)CNC(=O)[C@H](Cc1ccccc1)NC(=O)[C@H](CC(=O)O)NC(=O)[C@H](Cc1c[nH]c2ccccc12)NC(=O)[C@H](C)NC(=O)[C@@H](NC(=O)[C@H](CC(=O)O)NC(=O)CNC(=O)[C@H](CC(C)C)NC(=O)[C@@H](NC(=O)[C@H](C)NC(=O)[C@@H](N)CCSC)[C@@H](C)CC)[C@@H](C)O)C(C)C)[C@@H](C)O)[C@@H](C)CC)C(C)C)C(=O)N[C@@H](Cc1ccc(O)cc1)C(=O)O` (H-MAILGDTAWDFGSLGGVFTSIGKALHQVFGAIY-OH): the Activity with dengue virus type 4 [19], in the series with dengue virus type 3 [20], with dengue virus type 2 [21] and in the series with dengue virus type 1 [22] was 50% throughout.
